From patent publication US20120230974A1, “ALKALINE ALPHA GALACTOSIDASE FOR THE TREATMENT OF FABRY DISEASE” (PROTALIX LTD, priority 2009, published 2012)

What was measured:
[1] = Biodistribution of fluorescent Gb3 in WT and Fabry mice; assay type: in vivo
Text: For testing the hypothesis that circulating Gb3 can reach and accumulate in organs, organ uptake and biodistribution of fluorescent Gb3 (N-Dodecanoyl-NBD-ceramide trihexoside) in wild type (WT) and Fabry mice were effected.
Animals: Mice: Fabry mice and WT mice
Group Size: total 12 male mice, n=2
Materials: fluorescent Gb3 (N-Dodecanoyl-NBD-ceramide trihexoside; Catalog #: 1631, Matreya Pa. 16823 USA
Jackson B6J129Gla α-galactosidase-A-deficient mice (“Fabry mice”) were purchased from Jackson Laboratories. These mice are characterized by being totally deficient in α-Galactosidase-A activity and progressively accumulate Gb3 in both plasma and in the lysosomes of most tissues (in particular, the liver, spleen, heart, skin, and kidneys). In addition, these mice have no clinical disease phenotype and survive a normal laboratory life span (>2 years). Hemizygous affected males were bred to homozygous affected females, thereby providing only affected offspring. For these studies, all mice were affected adult males 12 to 30 weeks of age at study initiation.
Administration: IV injection, tail vein.
Gb3-NBD was injected to wild type and Fabry mice. Blood was collected 1 hour and 24 hours following injection and plasma was prepared using accepted methods. Gb3-NBD levels were determined using Fluorescent Elisa reader (Infinite M200; Tecan, Switzerland), subtracting basal fluorescent levels plasma of control mice injected with saline.
Gb3 presence was also detected with HP TLC (CAMAG, Switzerland)
Organs (liver, kidney heart and spleen) were collected from the mice of the experiment described above, and Gb3-NBD levels were determined by fluorescence detector and HPTLC as described. As the experiment was initial, low levels of Injected Gb3 NBD were given.

[2] = In vitro hydrolysis of Gb3-NBD by alpha galactosidases from different sources under various pH conditions (TLC); assay type: biochemical; details: phosphate buffer pH 6.5, 60 min 37° C., a-Gal 50 ug/ml
Protocol: Green Coffee Bean-GCB a-Gal (Sigma #G8507)
Plant recombinant human alpha galactosidase was produced as described in WO2008/132743 (alpha-Gal-KDEL).
Commercial recombinant human alpha galactosidase (Replagal, Shire)
The following protocol was used for NBD-Gb3 hydrolysis:
90 μl activity buffer [citrate phosphate pH=4.6; phosphate buffer pH=6.5
10 μl of NBD-Gb3 0.35 ug/ul in Ethanol [35 ug/ml in reaction]
5 μl of a-Gal 1 mg/ml [50 ug/ml in reaction]
Incubation for 60 min in 37° C.
100 μl chloroform were added followed by vortex
50 μl methanol were added followed by vortex
Injection on TLC silica-60 plate, Chloroform: methanol: H2O [100:42:6] as mobile phase.

[3] = Activity assay with NBD-Gb3 in PBS pH 7.4 (HP-TLC); assay type: biochemical
Protocol: a-Gals: prh-alpha galactosidase, GCB a-Gal (endogenous green coffee bean).
80 μl PBS (sigma), pH=7.4
10 μl of NBD-Gb3 0.1 μg/ul in Ethanol [10 ug/ml in reaction]
10 μl of a-Gal 1 mg/ml [100 μg/ml in reaction]
Incubated for 60 min in 37° C.
150 μl chloroform: methanol (2:1) were added followed by vortex the lower phase pulled out speed-vac was effected to complete evaporation and the pellet dissolved in 50 μl Chloroform: methanol [1:1] All samples were injected on HP-TLC silica-60 plate [40 ul ]
Chloroform: methanol: H2O [100:42:6].

[4] = clinical studies; cited from earlier work

Molecule: N-Dodecanoyl-NBD-ceramide trihexoside [Gb3-NBD]
- Gb3-NBD levels in plasma (fluorescence) ([1]; 24 hours following iv injection, 320 ug/kg, WT and Fabry mice): fluorescence only in Fabry mice
- Gb3-NBD fluorescent levels in plasma and organs (liver, kidney, heart, spleen) ([1]; iv 320 ug/kg, fluorescence detector): only detectable in Plasma (FIG. 5) and Liver
- Gb3-NBD bands in organs by HPTLC ([1]; iv 320 ug/kg, inconclusive due to high background): only in Fabry mice

Molecule: Green coffee bean alpha gal: Endogenous green coffee bean alpha galactosidase (Sigma #G8507)
- Hydrolysis of Gb3-NBD to lactosylceramide-NBD [2]: can hydrolyze NBD-Gb3
- Activity compared with plant recombinant human alpha Gal (upshift of band) ([3]; PBS pH 7.4): works better
- Enzymatic activity on NBD-Gb3 under neutral to basic pH ([3]; PBS pH 7.4, 60 min 37° C., a-Gal 100 μg/ml, HP-TLC): demonstrate enzymatic activity
- Activity under alkaline pH compared with the acidic conditions of FIG. 3 ([3]; pH 7.4 vs acidic conditions of FIG. 3): more active under alkaline pH conditions

B1: Replagal: Commercial recombinant human alpha galactosidase (Replagal, Shire) (protein, UniProt P06280 32-429, looked up)
Alpha-galactosidase A: LDNGLARTPTMGWLHWERFMCNLDCQEEPDSCISEKLFMEMAELMVSEGWKDAGYEYLCIDDCWMAPQRDSEGRLQADPQRFPHGIRQLANYVHSKGLKLGIYADVGNKTCAGFPGSFGYYDIDAQTFADWGVDLLKFDGCYCDSLENLADGYKHMSLALNRTGRSIVYSCEWPLYMWPFQKPNYTEIRQYCNHWRNFADIDDSWKSIKSILDWTSFNQERIVDVAGPGGWNDPDMLVIGNFGLSWNQQVTQMALWAIMAAPLFMSNDLRHISPQAKALLQDKDVIAINQDPLGKQGYQLRQGDNFEVWERPLSGLAWAVAMINRQEIGGPRSYTIAVASLGKGVACNPACFITQLLPVKRKLGFYEWTSRLRSHINPTGTVLLQLENTMQMSLKDLL
modifications: agalsidase alfa
- Hydrolysis of Gb3-NBD to lactosylceramide-NBD [2]: can partially hydrolyze Gb3
- Clearance of Gb3 from plasma, kidney cells, capillary endothelial cells of heart and skin [4]: proven efficacious

B2: Fabrazyme: Recombinant form of human α-galactosidase A (agalsidase beta, Genzyme) (protein, UniProt P06280 32-429, looked up)
Alpha-galactosidase A: B1 Alpha-galactosidase A
modifications: agalsidase beta
- Clearance of Gb3 from plasma, kidney cells, capillary endothelial cells of heart and skin [4]: proven efficacious
